Experimental data reported in patent US20100184708A1, “USE OF GLY-PRO-GLU-OH (GPE) AS A THERAPEUTIC AGENT” (priority 2007, published 2010).

Test system: drug-resistant Mycobacterium tuberculosis
Conditions: peptide 10 micrograms per ml, seven days

NCC(=O)N1CCC[C@H]1C(=O)N[C@@H](CCC(=O)O)C(=O)O [IGF-I (1-3), Gly-Pro-Glu-OH]
% inhibition: 0.0%
